Article PMC10110893, “[…]-derived synthetic cannabinoids inhibit T-type calcium channels with divergent effects on seizures in rodent models of epilepsy” (Frontiers in Physiology, 2023)

Assays:
human Cav3.2 = target: T1, human Cav3.2 (Homo sapiens, UniProt O95180); test: FLIPR calcium flux assay, Cav3.2; assay type: cell-based
T1 construct: expressed in transfected cells; host or cells: HEK293 FlpIn T-Rex cells (Invitrogen)
Method: Intracellular calcium flux was measured using a fluorometric imaging plate-reader (FLIPR) Calcium 5 Assay Kit and FlexStation 3 Microplate Reader (Molecular Devices, San Jose, United States). […]
Fluorescence readings were taken at 2 s intervals (λ excitation = 485 nm, λ emission = 525 nm). […] Baseline fluorescence averaged over the 20 s interval preceding CaCl2 addition was subtracted and normalized to the vehicle response. Changes in fluorescence were measured in relative fluorescence units (RFU). […]

human Cav3.3 = target: T2, human Cav3.3 (Homo sapiens, UniProt Q9P0X4); test: FLIPR calcium flux assay, Cav3.3; assay type: cell-based
T2 construct: expressed in transfected cells; host or cells: HEK293 FlpIn T-Rex cells (Invitrogen)
Method: HEK293 FlpIn T-Rex cells (Invitrogen, CA, United States) stably expressing human Cav3.1, Cav3.2, or Cav3.3 were maintained in Dulbecco’s Modified Eagle Medium (DMEM) supplemented with 10% foetal bovine serum (FBS), 1% penicillin-streptomycin (P/S) at 37°C, and 5% CO2 as previously described ([Bladen et al., 2021]; [Udoh et al., 2022]). Hygromycin (80 μg/mL) and blasticidin (15 μg/mL) were used as selection antibiotics and cells were passaged at 80% confluency. For experiments, cells were resuspended in Leibovitz’s L-15 media (containing 1% FBS, 1% P/S, 15 mM glucose, 2 μg/mL tetracycline), plated in black, clear-bottomed poly-D-lysine-coated 96-well plates (90 μL) (Corning, NY, United States), and incubated overnight in ambient air at 37°C. All compounds tested in cellular assays were prepared as stock solutions in DMSO and final DMSO concentration was 0.1%.
Intracellular calcium flux was measured using a fluorometric imaging plate-reader (FLIPR) Calcium 5 Assay Kit and FlexStation 3 Microplate Reader (Molecular Devices, San Jose, United States). Calcium 5 dye (90 μL) prepared in low potassium HBSS (Thermo Fisher Scientific) containing (in mM) 145 NaCl, 22 HEPES, 0.338 Na2HPO4, 4.17 NaHCO3, 0.441 KH2PO4, 0.407 MgSO4, 0.493 MgCl2, 1.26 CaCl2, 5.56 glucose, and […] with pH 7.4 was applied to each well and incubated for 1 h at 37°C, ambient air prior to testing.
Fluorescence readings were taken at 2 s intervals (λ excitation = 485 nm, λ emission = 525 nm). Following 2 min baseline reading, 20 μL of SB2193, SB2193F, or NNC 55-0396 (10 nM—10 μM) was added to cells and read for 5 min, then CaCl2 (10 mM) was added and read for 3 min. Baseline fluorescence averaged over the 20 s interval preceding CaCl2 addition was subtracted and normalized to the vehicle response. Changes in fluorescence were measured in relative fluorescence units (RFU). All compounds were assayed in ≥ five independent experiments (n = 5–8) performed in duplicate. Order of compound addition and location on the plate were varied between replicates. Data was fit to a four-parameter non-linear dose-response curve using GraphPad Prism 8.2.0 software (La Jolla, United States) to determine IC50 values.

human Cav3.1 = target: T3, human Cav3.1 (Homo sapiens, UniProt O43497); test: Whole-cell patch-clamp electrophysiology, Cav3.1; assay type: cell-based
T3 construct: expressed in transfected cells; host or cells: HEK293 FlpIn T-Rex cells (Invitrogen)
Method: All whole-cell voltage-clamp recordings from HEK293 FlpIn T-Rex cells stably transfected with human Cav3.1 were performed at room temperature. At least 24 h prior to experiments, cells were detached from flasks using trypsin/EDTA and plated into 10 cm sterile tissue culture dishes containing 10 mL of supplemented DMEM and 10–15 glass coverslips (12 mm diameter, ProScitech, QLD, Australia). Culture dishes were then kept overnight in same conditions as flasks to allow cells to adhere to coverslips. They were then transferred to a 30°C/5% CO2 incubator to inhibit cell proliferation until ready to be used for electrophysiology experiments. At this stage, channel expression was induced with tetracycline (2 μg/mL, Sigma-Aldrich) 8–24 h prior to recording cells.
External recording solutions contained (in mM): 114 CsCl, 5 BaCl2, 1 MgCl2, 10 HEPES, 10 glucose, adjusted to pH 7.4 with CsOH. The internal patch pipette solution contained (in mM): 126.5 CsMeSO4, 2 MgCl2, 11 EGTA, 10 HEPES adjusted to pH 7.3 with CsOH. […] Liquid junction potentials for the above solutions were calculated before experiments using pClamp 10 software and corrected during experiments. […] Currents were elicited from a holding potential of −100 mV and were measured by conventional whole-cell patch clamp techniques using an Axopatch 200B amplifier in combination with Clampex 9.2 software (Molecular Devices, Sunnyvale, CA). […]

T-type channels = system: T-type channels; design: method as in Kevin et al., 2022; conditions: single 10 μM concentration, FLIPR calcium flux and whole-cell patch clamp, ref Kevin et al., 2022; cited from earlier work
[1] = system: cannabinoid CB1 receptors; design: method as in Kevin et al., 2022; conditions: ref Kevin et al., 2022; cited from earlier work

T3 sequence (O43497 whole entry): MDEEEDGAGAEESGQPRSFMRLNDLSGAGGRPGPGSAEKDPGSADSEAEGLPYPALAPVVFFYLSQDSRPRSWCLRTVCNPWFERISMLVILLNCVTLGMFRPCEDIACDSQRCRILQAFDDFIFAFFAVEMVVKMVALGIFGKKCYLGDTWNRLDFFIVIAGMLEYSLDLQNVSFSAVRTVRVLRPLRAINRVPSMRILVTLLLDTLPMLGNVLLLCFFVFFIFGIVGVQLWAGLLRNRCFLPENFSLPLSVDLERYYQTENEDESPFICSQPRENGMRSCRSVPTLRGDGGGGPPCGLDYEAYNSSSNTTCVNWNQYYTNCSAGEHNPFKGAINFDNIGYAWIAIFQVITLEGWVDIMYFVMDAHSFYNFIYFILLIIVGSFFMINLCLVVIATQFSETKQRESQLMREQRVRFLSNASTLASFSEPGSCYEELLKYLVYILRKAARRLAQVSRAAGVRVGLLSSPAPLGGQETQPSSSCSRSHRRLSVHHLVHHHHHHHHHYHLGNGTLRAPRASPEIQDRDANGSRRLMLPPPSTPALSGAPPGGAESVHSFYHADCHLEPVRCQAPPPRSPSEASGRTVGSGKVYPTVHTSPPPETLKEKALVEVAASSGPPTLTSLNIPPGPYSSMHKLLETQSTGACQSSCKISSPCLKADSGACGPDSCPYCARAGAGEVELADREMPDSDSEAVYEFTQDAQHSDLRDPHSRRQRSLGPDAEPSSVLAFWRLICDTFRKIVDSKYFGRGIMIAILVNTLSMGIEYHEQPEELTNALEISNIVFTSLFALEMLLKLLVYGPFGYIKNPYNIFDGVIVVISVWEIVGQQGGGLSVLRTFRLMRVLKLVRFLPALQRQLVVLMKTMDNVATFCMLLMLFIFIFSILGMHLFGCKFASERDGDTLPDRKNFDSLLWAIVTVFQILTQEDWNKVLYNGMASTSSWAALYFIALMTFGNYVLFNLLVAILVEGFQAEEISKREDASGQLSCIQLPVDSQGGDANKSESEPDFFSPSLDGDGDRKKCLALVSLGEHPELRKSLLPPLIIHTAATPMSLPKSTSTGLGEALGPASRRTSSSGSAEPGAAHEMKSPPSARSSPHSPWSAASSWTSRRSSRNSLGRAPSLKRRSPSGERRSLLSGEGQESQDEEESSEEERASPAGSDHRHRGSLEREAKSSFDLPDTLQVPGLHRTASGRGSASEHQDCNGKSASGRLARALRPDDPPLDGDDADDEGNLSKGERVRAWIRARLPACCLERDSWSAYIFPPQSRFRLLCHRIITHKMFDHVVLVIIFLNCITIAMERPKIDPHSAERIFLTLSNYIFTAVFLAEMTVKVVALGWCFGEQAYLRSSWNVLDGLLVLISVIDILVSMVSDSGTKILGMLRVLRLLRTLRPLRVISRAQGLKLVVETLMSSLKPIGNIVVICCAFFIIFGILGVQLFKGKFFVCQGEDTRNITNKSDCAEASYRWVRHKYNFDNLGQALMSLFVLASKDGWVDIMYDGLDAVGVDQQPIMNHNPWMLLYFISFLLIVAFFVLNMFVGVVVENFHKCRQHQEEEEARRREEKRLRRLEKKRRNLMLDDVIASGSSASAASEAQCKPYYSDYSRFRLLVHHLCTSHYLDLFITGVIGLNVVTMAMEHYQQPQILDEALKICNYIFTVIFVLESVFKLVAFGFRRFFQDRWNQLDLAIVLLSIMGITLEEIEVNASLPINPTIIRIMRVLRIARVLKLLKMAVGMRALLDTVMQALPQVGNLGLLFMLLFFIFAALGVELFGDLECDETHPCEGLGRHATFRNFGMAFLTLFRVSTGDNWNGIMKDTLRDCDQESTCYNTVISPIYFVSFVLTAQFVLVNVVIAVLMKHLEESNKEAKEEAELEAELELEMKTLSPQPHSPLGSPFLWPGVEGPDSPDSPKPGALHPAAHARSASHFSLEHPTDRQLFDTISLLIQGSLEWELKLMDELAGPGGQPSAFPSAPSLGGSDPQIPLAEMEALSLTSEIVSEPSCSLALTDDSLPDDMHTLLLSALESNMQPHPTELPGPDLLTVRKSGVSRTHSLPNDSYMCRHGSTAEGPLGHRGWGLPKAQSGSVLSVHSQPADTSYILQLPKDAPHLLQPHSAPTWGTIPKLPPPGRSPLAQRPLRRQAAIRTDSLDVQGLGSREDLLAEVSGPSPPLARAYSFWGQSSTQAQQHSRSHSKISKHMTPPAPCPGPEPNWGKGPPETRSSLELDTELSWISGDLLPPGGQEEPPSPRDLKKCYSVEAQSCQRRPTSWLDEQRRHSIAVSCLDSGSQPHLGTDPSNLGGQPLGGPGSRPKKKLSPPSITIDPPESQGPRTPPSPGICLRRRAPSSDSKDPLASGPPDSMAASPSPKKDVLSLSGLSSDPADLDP
T2 sequence (Q9P0X4 whole entry): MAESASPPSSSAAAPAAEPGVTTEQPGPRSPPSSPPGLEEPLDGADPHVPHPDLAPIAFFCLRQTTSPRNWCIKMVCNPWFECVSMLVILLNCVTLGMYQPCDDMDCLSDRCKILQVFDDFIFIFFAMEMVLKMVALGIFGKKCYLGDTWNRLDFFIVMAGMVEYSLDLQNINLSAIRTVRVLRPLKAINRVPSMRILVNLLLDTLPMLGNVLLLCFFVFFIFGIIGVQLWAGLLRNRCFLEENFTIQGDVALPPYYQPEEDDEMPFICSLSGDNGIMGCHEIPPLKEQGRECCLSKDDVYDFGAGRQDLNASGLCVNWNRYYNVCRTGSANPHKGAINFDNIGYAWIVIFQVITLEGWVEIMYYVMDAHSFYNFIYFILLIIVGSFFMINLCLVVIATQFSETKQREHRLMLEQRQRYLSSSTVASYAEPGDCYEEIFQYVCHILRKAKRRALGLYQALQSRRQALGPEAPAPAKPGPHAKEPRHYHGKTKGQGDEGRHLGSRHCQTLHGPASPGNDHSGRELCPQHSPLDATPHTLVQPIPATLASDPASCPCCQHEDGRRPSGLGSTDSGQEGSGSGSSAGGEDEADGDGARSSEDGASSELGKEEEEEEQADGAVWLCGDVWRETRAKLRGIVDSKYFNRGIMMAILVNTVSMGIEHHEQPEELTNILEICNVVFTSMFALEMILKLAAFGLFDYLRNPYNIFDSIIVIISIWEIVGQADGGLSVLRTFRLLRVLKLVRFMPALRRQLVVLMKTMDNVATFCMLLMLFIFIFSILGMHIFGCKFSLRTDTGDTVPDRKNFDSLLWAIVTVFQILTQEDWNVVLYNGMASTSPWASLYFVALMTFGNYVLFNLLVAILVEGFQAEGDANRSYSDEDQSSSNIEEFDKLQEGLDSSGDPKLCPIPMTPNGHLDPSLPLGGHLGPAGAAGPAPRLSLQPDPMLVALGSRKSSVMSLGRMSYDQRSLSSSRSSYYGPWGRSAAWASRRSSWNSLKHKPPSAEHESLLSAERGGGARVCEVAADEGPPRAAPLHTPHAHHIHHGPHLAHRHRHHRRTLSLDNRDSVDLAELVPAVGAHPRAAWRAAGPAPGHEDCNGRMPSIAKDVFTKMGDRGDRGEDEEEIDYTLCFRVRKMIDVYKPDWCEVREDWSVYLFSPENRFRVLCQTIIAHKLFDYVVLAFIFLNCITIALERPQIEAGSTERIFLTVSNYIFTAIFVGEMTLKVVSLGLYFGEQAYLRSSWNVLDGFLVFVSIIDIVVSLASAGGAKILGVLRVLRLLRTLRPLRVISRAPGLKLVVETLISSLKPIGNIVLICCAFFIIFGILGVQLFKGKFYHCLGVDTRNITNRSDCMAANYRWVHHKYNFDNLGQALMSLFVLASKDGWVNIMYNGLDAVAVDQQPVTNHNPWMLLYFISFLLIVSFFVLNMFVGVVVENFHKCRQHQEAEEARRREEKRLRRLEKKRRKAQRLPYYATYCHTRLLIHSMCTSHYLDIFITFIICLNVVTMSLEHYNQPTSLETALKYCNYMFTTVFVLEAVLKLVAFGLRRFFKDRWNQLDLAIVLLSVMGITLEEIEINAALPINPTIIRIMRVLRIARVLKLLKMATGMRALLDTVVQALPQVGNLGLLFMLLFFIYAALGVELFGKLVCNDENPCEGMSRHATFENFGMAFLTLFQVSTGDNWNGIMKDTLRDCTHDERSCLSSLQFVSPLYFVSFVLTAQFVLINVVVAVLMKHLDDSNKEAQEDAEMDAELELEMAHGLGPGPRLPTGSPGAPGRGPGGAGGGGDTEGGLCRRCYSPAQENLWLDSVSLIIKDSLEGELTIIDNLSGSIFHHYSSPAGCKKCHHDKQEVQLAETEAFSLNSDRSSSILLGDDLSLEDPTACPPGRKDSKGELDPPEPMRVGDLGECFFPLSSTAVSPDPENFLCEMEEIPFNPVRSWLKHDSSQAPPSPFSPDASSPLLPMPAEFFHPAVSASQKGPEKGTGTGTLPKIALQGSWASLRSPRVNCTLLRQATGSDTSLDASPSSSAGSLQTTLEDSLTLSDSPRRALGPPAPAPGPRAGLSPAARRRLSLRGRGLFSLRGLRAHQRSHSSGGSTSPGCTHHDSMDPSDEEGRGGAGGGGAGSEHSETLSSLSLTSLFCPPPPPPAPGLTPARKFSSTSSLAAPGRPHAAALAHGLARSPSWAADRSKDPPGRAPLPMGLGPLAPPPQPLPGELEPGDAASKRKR

Q: With `CCCCCn1cc(C(=O)N2CCN(C(=O)OC(C)(C)C)CC2)c2ccccc21` [SB2193] as the molecule, how does the IC50 (human Cav3.2) read?
A: Its IC50 is 5.9 µM.

Q: And the IC50 (human Cav3.3)?
A: The IC50 was 5.4 µM.

Q: And the “potency in patch clamp less than that determined by the FLIPR assay” value (human Cav3.1; Cav3.1, patch clamp vs FLIPR)?
A: Its value is “approximately 4 fold”.

Q: What about the IC50 (human Cav3.1; whole-cell patch clamp, n = 7–8, read-out: Cav3.1 pIC50 (converted)) of the same molecule?
A: Its IC50 is 3.55 µM.

Q: What about the “inhibition of T-type channels” value (T-type channels) of the same molecule?
A: The value was “strongly inhibit”.

Q: What about the “activity at cannabinoid CB1 receptors” value [1] of the same molecule?
A: The value was “minimal activity”.
